From PMC4741889, “Ligand-based chemoinformatic discovery of a novel small molecule inhibitor targeting CDC25 dual specificity phosphatases and displaying in vitro efficacy against melanoma cells” (Oncotarget, 2015)

Experiments:
Format in all cases: cell-based, human
[1] = test system: pAkt protein levels; assay: Western blotting of pAkt (Ser473) in A2058 cells; details: A2058, 100 μM, 2 and 4 h
Description: The molecular mechanisms that regulate the cytotoxic potential of 7 in melanoma cells were further investigated through the evaluation of the activation state of protein kinase B (pAkt), one of the key proteins involved in the control and regulation of cell survival. To this aim, the protein levels of pAkt have been analyzed after 2- and 4-h incubation of A2058 cells with 7. […] It is known that Akt regulates the process of cell survival by phosphorylating different substrates, directly or indirectly involved in the apoptotic program. One of these targets is p53, a protein with a tumor-suppressor activity that regulates the cell cycle, as well as the expression of several genes involved in the apoptosis. […]
A2058 cells were seeded into 6-well-plates (3 × 10^5 cells/plate) for 24 h at 37°C and then treated at different times with 100 μM compound 7 or 0.5% DMSO. […] The protein concentration was determined by the method of Bradford, using bovine serum albumin (BSA) as standard. […] Membranes were then analysed by an enhanced chemiluminescence reaction, using Super Signal West Pico kit (Pierce) according to manufacturer's instruction; signals were visualized by autoradiography.

[2] = test system: caspase-3 activity; assay: Caspase-3 enzymatic activity in A2058 cells; details: A2058, 100 μM
Source text: (§1) PI incorporation followed by flow cytometric analysis was used to detect the effect of 7 on the number of nuclei with a sub-diploid content, a typical hallmark of apoptosis. A time-dependent increase of apoptosis was evident in both A2058 and SAN cells and in particular, the effect of 7 on cell death program was already evident after 24-h treatment (Figure 7). […] To further investigate on the capacity of 7 to induce apoptosis, the enzymatic activity of caspase-3, the final effector of apoptotic program, was monitored.
To estimate caspase-3 and caspase-9 activity during the treatment with compound 7, the respective enzymatic activities were measured by using caspase-3 and -9 fluorimetric assay kits, according to the manufacturer's protocol, essentially as previously described. Briefly, cells were seeded into 75 cm^2 plates (2 × 10^6 cells/plate) for 24 h at 37°C and then treated with 100 μM 7 or 0.5% DMSO. At the end of each incubation, cells were collected, washed with PBS, and finally lysed at 4°C in the cell lysis buffer. Cell lysates were incubated with 50 μM DEVD-AFC or LEHD-AFC substrates at 37°C for 2 h, to detect caspase-3 or caspase-9 activity, respectively, using a Cary Eclipse fluorescence spectrophotometer (Varian). Excitation and emission wavelengths were set at 400 nm and 505 nm, respectively; both excitation and emission slits were set at 10 nm.

[3] = test system: SAN cells; assay: Apoptosis, subdiploid DNA content by PI flow cytometry, SAN cells
Source text: as §1
[…] After each treatment, cells were harvested with trypsin, centrifuged and the pellet was resuspended in phosphate-buffered saline (PBS). For cell cycle analysis, cells were fixed with 70% (v/v) cold ethanol and stored at −20°C for 1 h. Then, cells were washed with cold PBS, centrifuged and the pellets were resuspended in 200 μL of a non-lysis solution containing 50 μg/mL PI. For the evaluation of apoptosis, cells were not fixed in ethanol and directly resuspended in 200 μL of a hypotonic lysis solution containing 50 μg/mL PI. After incubation at 4°C for 30 min, cells were analyzed with a FACScan flow cytometer (Becton Dickinson) for evaluating the distribution in cell cycle phases or the presence of nuclei with a DNA content lower than the diploid.

[4] = test system: CDC25C protein levels; assay: Western blotting of CDC25C protein levels in A2058 cells; details: A2058, 100 μM, from 4 h up to 16 h
Description: To better investigate the effect of this inhibitor at the molecular level, we evaluated if the treatment of A2058 cells with 7 affected also the protein levels of the three CDC25 forms. […] On the other hand, the protein levels of CDC25B were unaffected by treatment of A2058 cells with 7 up to 16 h.
A2058 cells were seeded into 6-well-plates (3 × 10^5 cells/plate) for 24 h at 37°C and then treated at different times with 100 μM compound 7 or 0.5% DMSO. After treatment, cells were harvested, washed with PBS and then lysed in ice-cold modified radio immunoprecipitation assay (RIPA) buffer (50 mM Tris-HCl, pH 7.4, 150 mM NaCl, 1% Nonidet P-40, 0.25% sodium deoxycholate, 1 mM Na3VO4 and 1 mM NaF), supplemented with protease inhibitors and incubated for 30 min on ice. The supernatant obtained after centrifugation at 12,000 rpm for 30 min at 4°C constituted the total protein extract. The protein concentration was determined by the method of Bradford, using bovine serum albumin (BSA) as standard. Equal amounts of total protein extracts were used for Western blot analysis. […] Membranes were then analysed by an enhanced chemiluminescence reaction, using Super Signal West Pico kit (Pierce) according to manufacturer's instruction; signals were visualized by autoradiography.

[5] = test system: p53 protein levels; assay: Western blotting of p53 protein levels in SAN cells; details: 100 μM, 16 h (not shown)

O=C(O)C1CCCCC1c1c2ccc(=O)cc-2oc2cc(O)ccc12 (stereo not shown) [Compound 7, 2-(6-hydroxy-3-oxo-3H-xanthen-9-yl)cyclohexanecarboxylic acid]
protein level of pAkt with respect to total Akt [1]: early reduction of the protein level of pAkt | caspase-3 enzymatic activity [2]: significant increase of the enzymatic activity of caspase-3 | level of apoptosis caused by 7 in the presence of Z-VAD-FMK ([3]; 100 μM 7 + 100 μM Z-VAD-FMK, 48 h): significantly decreased | apoptosis (nuclei with sub-diploid content) ([3]; 100 μM, 24-72 h): increase of apoptosis was significant even at 24-h treatment | apoptosis after NAC pre-treatment ([3]; NAC pre-treatment, 100 μM 7, 48 h): in a great part reverted | CDC25C protein levels [4]: progressive and significant reduction of CDC25C protein levels | p53 protein level [5]: higher level of this protein
